Source: PubChem BioAssay AID292 (DTP/NCI, 2004)
Several values for one entry are separate records, joined by “and”; a condition that tells them apart may be missing. Equal values may be shown once. Toxic doses and inconclusive results are not listed. Rule for the calls: active = survival T/C of 150% or more; inactive = T/C below 125% in these data.

System: B6C3F1 mice, ip Sarcoma M5076, median survival T/C
Test: NCI In Vivo Anticancer Drug Screen. Data for tumor model Sarcoma M5076 (intraperitoneal) in B6C3F1 mice
Details: endpoint: median survival time, schedule: Q04DX004 (ip), higher = longer survival
In short: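 Antitumour effect is judged in tumour-bearing mice by comparing survival after compound dosing against vehicle-only animals, reported as T/C.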

[1] = dose: 25.0 mg/kg/injection, vehicle: saline with Tween-80
[2] = dose: 50.0 mg/kg/injection, vehicle: saline with Tween-80
[3] = dose: 50.0 mg/kg/injection, vehicle: water
[4] = dose: 100.0 mg/kg/injection, vehicle: water
[5] = dose: 100.0 mg/kg/injection, vehicle: saline with Tween-80
[6] = dose: 200.0 mg/kg/injection, vehicle: saline with Tween-80
[7] = dose: 50.0 mg/kg/injection, vehicle: Klucel (hydroxypropylcellulose) (HPC)
[8] = dose: 100.0 mg/kg/injection, vehicle: Klucel (hydroxypropylcellulose) (HPC)
[9] = dose: 200.0 mg/kg/injection, vehicle: Klucel (hydroxypropylcellulose) (HPC)

Measured: T/C

CCCCNP1(NCCCC)=NP(NCCCC)(NCCCC)=NP(NCCCC)(NCCCC)=NP(NCCCC)(NCCCC)=N1
inactive: dose: 3.13 mg/kg/injection, vehicle: saline with Tween-80 96 % of control | dose: 6.25 mg/kg/injection, vehicle: saline with Tween-80 104 % of control | dose: 12.5 mg/kg/injection, vehicle: saline with Tween-80 102 % of control | [1] 96 % of control | [2] 97 % of control

O=NNc1cnccn1
active: [3] 150 % of control and 155 % of control | [4] 196 % of control
inactive: dose: 6.25 mg/kg/injection, vehicle: water 107 % of control | dose: 12.5 mg/kg/injection, vehicle: water 118 % of control and 123 % of control

Cc1nc2cc[nH]n2c(=O)c1CCc1ccccc1
inactive: [2] 107 % of control | [5] 94 % of control | [6] 96 % of control

CN1C=C/C(=C/[N+](=O)[O-])N(C)C1=O
inactive: dose: 25.0 mg/kg/injection, vehicle: Klucel (hydroxypropylcellulose) (HPC) 103 % of control | [7] 103 % of control | [8] 99 % of control | [9] 103 % of control

CO[C@@]12[C@H](COC(N)=O)C3=C(C(=O)C(C)=C(N)C3=O)N1C[C@@H]1N[C@@H]12
inactive: dose: 0.25 mg/kg/injection, vehicle: saline 106 % of control | dose: 0.5 mg/kg/injection, vehicle: saline 120 % of control and 121 % of control

Cc1cc(=O)n(Cc2ccco2)c(=S)[nH]1
inactive: [2] 105 % of control | [5] 105 % of control | [6] 100 % of control | dose: 400.0 mg/kg/injection, vehicle: saline with Tween-80 89 % of control | dose: 800.0 mg/kg/injection, vehicle: saline with Tween-80 106 % of control

COc1ccc(NC(=O)C2C(=O)C(=O)N(c3ccc(OC)cc3OC)C2=O)c(OC)c1 (stereo unspecified)
inactive: [7] 100 % of control | [8] 100 % of control | [9] 97 % of control

Nc1ccc2ccc(N)cc2c1
inactive: [1] 93 % of control | [2] 96 % of control | [5] 89 % of control | [6] 93 % of control

NCc1cc(O)c(O)c(O)c1
inactive: dose: 75.0 mg/kg/injection, vehicle: saline 100 % of control and 106 % of control | dose: 150.0 mg/kg/injection, vehicle: saline 100 % of control and 104 % of control | dose: 300.0 mg/kg/injection, vehicle: saline 100 % of control and 104 % of control | dose: 600.0 mg/kg/injection, vehicle: saline 101 % of control and 118 % of control | dose: 1200.0 mg/kg/injection, vehicle: saline 104 % of control

Oc1cccc2ccccc12
inactive: dose: 25.0 mg/kg/injection, vehicle: water 100 % of control | [3] 105 % of control | [4] 98 % of control

CN(C)CCCN=c1c2ccccc2n(C)c2[nH]c(=O)n(C)c(=O)c12
inactive: dose: 7.5 mg/kg/injection, vehicle: saline 101 % of control | dose: 15.0 mg/kg/injection, vehicle: saline 99 % of control | dose: 30.0 mg/kg/injection, vehicle: saline 102 % of control
